One assay has as its target αvβ6 (Homo sapiens (Human), UniProt P06756+P18564). Nature of the assay: αVβ6–LAP-TGF β1 integrin binding assay (integrin-coupled beads, flow cytometry). As to conditions: for IC50: ligand LAP TGF-β1; for αvβ8/αvβ6: ratio of αvβ8 IC50 to αvβ6 IC50. From the text: (§1) All αV Integrins are known to bind to proteins with a RGD motif. Two RGD ligands were used in this study: Vitronectin (VN) as a ligand for αVβ3 and αVβ5 (Wayner et al., J. Cell Biol., 113 (4), 919-929, 1991), and LAP TGF-β1 (LAP1) as a ligand for αVβ6 and αVβ8 (Rognoni et al., Nat. Med., 20(4): 350-359, 2014). CWHM12 was used as a positive control for αVβ6 and αVβ8 (Henderson et al., Nat. Med. 19(12), 10.1038/nm.3282 2013), and Cilengitide as a positive control for αVβ3 and αVβ5 (Kumar et al., J. Pharmacol. Exp. Ther., 283, 843-853, 1997).
(§2) The integrin coupled Dyna beads were allowed to interact with respective ligands. The integrin-ligand complex was detected with either Primary/Secondary Antibody conjugated with Fluorescein Isothiocyanate (FITC). For αVβ3 and αVβ5, Vitronectin was used as a ligand and a primary antibody conjugated with FITC (Anti-VN-FITC Ab) was used to detect the interaction. For αVβ6 and αVβ8, LAP-TGF (31 was used as ligand and a primary antibody against LAP1 (Anti-LAP1 Ab) and a secondary antibody conjugated with FITC were used to detect the αVβ6/αVβ8-LAP-TGF (31 complex. Fluorescence was measured by Flow Cytometry analysis.
(§3) 5 mg of Dyna beads were weighed in a low protein binding microfuge (Eppendorf) tube (1.5 mL volume). The beads were re-suspended in 1 mL of Sodium Phosphate Buffer and vortexed at high speed for 30 seconds. The tube was then placed in a tube roller and tilt rotated for 10 min. After tilt rotation, the tube was placed on the Magna Spin and the beads were allowed to settle. The supernatant was discarded and the beads were washed three times. The beads were then re-suspended in 100 μL of Sodium Phosphate Buffer and 20 μL of washed beads were distributed into 5 low protein binding Eppendorf tubes (1 mg of beads in each tube). The beads were used for coupling integrins.
(§4) 20 μL of (1 mg) of beads were mixed with 20 μL of integrins (20 μg) and 20 μL of 3 M Ammonium Sulfate solution (final concentration of ammonium sulfate was 1M) to achieve a Bead: Protein ratio of 5 mg:100 μg. The solution was mixed gently and placed in a tube roller and incubated at 37° C. for 16 hours.
(§5) αVβ6/αVβ8 coupled beads were treated with the ligand LAP TGF-β1 (LAP1) at room temperature for 3 hours. The complex (Integrin+Ligand) was then treated with primary Ab (Anti-LAP1 Ab) overnight at 4° C. The whole complex (Integrin+Ligand+Primary Ab) was treated with Secondary Ab conjugated with FITC and incubated for 2 hours. The complex was analyzed by either plate reader or Flow Cytometer.
(§6) 10 μL of αVβ6/αVβ8 coupled beads were taken for the experiment. The concentration of integrins was 10 nM. 10 μL of LAP1 was taken (10 nM for aVβ6 and 20 nM for aVβ8). Reaction between integrin coupled beads and LAP1 was considered as the full reaction, and reaction without LAP1 or a compound of the disclosure was considered as the blank reaction. The samples were incubated in low protein binding tubes at room temperature for 3 hours. The tubes were briefly spun and placed in a Magna spin. The supernatant was removed. The beads were washed with assay buffer twice to remove excess LAP1 and then re-suspended in […] assay buffer containing 1:200 anti-LAP1 Ab (primary Ab). The tubes were placed in a tube roller and incubated at 4° C. overnight. After a brief spin, the tubes were then placed in a Magna spin and the supernatant was removed. The beads were washed with assay buffer twice to remove excess primary Ab and then re-suspended in 150 μL of assay buffer containing 1:500 secondary Ab conjugated with FITC. The tubes were incubated at room temperature for 2 hours in a tube roller. After a brief spin, the tubes were placed in a Magna spin and the supernatant was removed. The beads were washed with assay buffer twice followed by PBS. The beads were then re-suspended in 300 μL of PBS and analyzed by a Flow Cytometer (BD FACSCalibur, Software—BDcell Quest Pro Version 6). […]

The target of another assay is αvβ8 (Homo sapiens (Human), UniProt P06756+P26012). The assay is described as follows: αVβ8–LAP-TGF β1 integrin binding assay (integrin-coupled beads, flow cytometry). Particulars: ligand LAP TGF-β1.
αvβ8, sequence (P06756 31-992): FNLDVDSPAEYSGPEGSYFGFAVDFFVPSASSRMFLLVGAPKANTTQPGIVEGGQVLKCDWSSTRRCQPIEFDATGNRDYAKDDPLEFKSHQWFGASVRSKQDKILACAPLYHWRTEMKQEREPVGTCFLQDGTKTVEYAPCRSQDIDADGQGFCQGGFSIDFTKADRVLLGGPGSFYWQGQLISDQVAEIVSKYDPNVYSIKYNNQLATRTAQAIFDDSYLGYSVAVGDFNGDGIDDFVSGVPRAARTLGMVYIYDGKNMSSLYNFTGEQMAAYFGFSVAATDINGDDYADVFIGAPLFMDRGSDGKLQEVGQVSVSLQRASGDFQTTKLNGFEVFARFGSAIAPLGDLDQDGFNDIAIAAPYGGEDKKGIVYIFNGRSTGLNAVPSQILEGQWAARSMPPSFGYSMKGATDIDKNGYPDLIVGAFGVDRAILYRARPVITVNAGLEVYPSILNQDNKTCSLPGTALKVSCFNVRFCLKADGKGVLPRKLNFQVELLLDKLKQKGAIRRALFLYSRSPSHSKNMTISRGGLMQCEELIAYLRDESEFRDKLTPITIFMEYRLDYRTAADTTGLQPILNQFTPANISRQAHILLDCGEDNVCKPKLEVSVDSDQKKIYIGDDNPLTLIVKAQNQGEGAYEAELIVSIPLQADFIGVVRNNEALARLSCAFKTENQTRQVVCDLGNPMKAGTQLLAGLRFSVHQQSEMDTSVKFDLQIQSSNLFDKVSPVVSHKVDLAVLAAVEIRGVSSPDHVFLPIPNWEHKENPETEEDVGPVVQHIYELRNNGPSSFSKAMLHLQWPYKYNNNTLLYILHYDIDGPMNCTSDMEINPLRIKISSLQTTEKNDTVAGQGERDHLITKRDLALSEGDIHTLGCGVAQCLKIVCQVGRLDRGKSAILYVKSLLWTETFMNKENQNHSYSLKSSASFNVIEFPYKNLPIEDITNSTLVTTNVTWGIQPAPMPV
αvβ8, sequence (P26012 43-684): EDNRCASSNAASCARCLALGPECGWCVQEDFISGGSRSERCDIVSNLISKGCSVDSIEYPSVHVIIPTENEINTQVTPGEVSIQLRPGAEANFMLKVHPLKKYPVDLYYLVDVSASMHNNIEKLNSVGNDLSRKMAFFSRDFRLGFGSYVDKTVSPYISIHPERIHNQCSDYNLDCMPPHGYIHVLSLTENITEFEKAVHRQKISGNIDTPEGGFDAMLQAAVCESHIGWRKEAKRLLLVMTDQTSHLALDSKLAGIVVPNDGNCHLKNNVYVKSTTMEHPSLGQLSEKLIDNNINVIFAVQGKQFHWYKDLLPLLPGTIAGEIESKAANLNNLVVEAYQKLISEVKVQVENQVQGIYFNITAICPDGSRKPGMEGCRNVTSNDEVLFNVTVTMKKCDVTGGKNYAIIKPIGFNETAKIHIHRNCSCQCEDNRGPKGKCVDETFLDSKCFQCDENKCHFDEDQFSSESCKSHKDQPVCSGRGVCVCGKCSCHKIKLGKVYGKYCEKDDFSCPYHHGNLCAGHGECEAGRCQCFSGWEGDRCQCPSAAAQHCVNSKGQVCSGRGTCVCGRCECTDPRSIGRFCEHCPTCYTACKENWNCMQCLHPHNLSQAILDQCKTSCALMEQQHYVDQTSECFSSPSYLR
Text: as §1, §2, §3, §4, §5, §6

A further assay concerns the target αvβ3 (Homo sapiens (Human), UniProt P05106+P06756). The assay is described as follows: αVβ3–vitronectin integrin binding assay (integrin-coupled beads, flow cytometry). Particulars: ligand vitronectin.
Text: as §1, §2, §3, §4
αVβ3/αVβ5 coupled beads were treated with the ligand at room temperature for 3 hours. The complex (Integrin+Ligand) was then treated with Anti-Vitronectin Ab conjugated with FITC overnight at 4° C. The complex was analyzed by either plate reader or Flow Cytometer.
10 μL of αVβ3/αVβ5 coupled beads were taken for the experiment. The concentration of integrins was 10 nM. 10 μL of vitronectin was taken. The concentration was 10 nM. Reaction between integrin coupled beads and vitronectin was considered as the full reaction, and reaction without vitronectin or a compound of the disclosure was considered as the blank reaction. The samples were incubated in low protein binding tubes at room temperature for 3 hours. The tubes were briefly spun and placed in a Magna spin. The supernatant was then removed. The beads were washed with assay buffer twice to remove excess vitronectin and then re-suspended in 150 μL of assay buffer containing 1:500 Anti-vitronectin Ab conjugated with FITC. The tubes were placed in a tube roller and incubated at 4° C. overnight. […] The beads were then re-suspended in […] PBS and analyzed by a Flow Cytometer (BD FACSCalibur, Software—BD Cell Quest Pro Version 6).
The samples were acquired using a BD FACSCalibur system and analyzed with BD Cell quest pro Version 6. […] Percentage of binding was calculated with respect to full reaction. […]

αvβ6, sequence (P06756 31-992): as the sequence (P06756 31-992) above
αvβ6, sequence (P18564 22-707): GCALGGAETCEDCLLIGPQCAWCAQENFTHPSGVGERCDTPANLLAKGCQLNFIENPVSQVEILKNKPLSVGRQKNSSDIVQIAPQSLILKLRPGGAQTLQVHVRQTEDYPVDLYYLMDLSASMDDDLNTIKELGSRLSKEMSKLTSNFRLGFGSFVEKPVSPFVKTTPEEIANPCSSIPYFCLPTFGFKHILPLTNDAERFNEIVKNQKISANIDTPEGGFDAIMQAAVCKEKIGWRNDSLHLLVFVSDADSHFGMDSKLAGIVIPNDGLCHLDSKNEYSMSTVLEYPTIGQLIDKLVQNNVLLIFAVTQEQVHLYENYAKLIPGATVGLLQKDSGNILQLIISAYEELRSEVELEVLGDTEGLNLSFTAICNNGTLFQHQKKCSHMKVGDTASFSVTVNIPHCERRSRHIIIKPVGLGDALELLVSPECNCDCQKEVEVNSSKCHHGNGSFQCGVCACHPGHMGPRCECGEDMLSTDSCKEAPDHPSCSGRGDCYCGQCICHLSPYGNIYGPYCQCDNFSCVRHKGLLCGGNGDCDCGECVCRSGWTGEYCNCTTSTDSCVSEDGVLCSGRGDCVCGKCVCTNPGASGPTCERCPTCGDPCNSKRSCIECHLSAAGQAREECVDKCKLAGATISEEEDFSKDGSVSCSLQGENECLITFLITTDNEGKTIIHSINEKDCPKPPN
αvβ3, sequence (P06756 31-992): as the sequence (P06756 31-992) above
αvβ3, sequence (P05106 27-718): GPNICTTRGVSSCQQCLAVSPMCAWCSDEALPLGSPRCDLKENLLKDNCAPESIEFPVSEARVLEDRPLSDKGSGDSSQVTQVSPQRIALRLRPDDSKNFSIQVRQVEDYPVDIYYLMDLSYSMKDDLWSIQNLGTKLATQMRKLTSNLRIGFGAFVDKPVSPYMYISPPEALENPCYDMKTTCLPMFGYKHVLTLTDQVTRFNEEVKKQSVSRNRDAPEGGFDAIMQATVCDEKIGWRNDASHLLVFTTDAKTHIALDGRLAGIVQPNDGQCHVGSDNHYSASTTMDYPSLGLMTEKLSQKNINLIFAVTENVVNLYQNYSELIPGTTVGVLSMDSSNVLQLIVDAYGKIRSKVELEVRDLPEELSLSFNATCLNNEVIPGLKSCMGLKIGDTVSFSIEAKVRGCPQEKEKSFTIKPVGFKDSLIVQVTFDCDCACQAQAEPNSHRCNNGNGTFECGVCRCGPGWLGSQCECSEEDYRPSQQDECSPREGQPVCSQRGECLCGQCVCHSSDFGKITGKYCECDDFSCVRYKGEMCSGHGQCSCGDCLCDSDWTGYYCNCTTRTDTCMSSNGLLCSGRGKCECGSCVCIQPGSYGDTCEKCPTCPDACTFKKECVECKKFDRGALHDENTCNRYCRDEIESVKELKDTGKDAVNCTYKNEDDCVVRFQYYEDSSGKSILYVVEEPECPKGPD

`O=C(O)CC(CCCCCCc1ccc2c(n1)NCCC2)c1cnc(C(F)(F)F)nc1` (centres unmarked) [Compound A2, 9-(5,6,7,8-tetrahydro-1,8-naphthyridin-2-yl)-3-(2-(trifluoromethyl)pyrimidin-5-yl)nonanoic acid]: the IC50 worked out at 11.6 nM on αvβ6, 78.1 nM on αvβ8 and 9 nM on αvβ3. For the same compound, the αvβ8/αvβ6 on αvβ6 was 6.71.

With `O=C(O)CC(CCCCCCc1ccc2c(n1)NCCC2)c1ccc(OC(F)F)nc1` (centres unmarked) [Compound A3, 3-(6-(difluoromethoxy)pyridin-3-yl)-9-(5,6,7,8-tetrahydro-1,8-naphthyridin-2-yl)nonanoic acid], the IC50 on αvβ6 was determined as 18.2 nM; on αvβ8, 79.3 nM; on αvβ3 it was 0.57 nM. In addition, at αvβ6, the αvβ8/αvβ6 is listed as 4.37.

For the compound `O=C(O)CC(CCCCCCc1ccc2c(n1)NCCC2)c1cnc2ccc(F)cc2c1` (centres unmarked) [Compound A4, 3-(6-fluoroquinolin-3-yl)-9-(5,6,7,8-tetrahydro-1,8-naphthyridin-2-yl)nonanoic acid], the half-maximal inhibitory concentration (IC50) turned out to be 5.69 nM at αvβ6, 21.4 nM on αvβ8 and 1.4 nM at αvβ3. Besides, the αvβ8/αvβ6 on αvβ6 is reported as 3.75.

Regarding `O=C(O)CC(CCCCCCc1ccc2c(n1)NCCC2)c1cnc2cc(F)ccc2c1` (centres unmarked) [Compound A5, 3-(7-fluoroquinolin-3-yl)-9-(5,6,7,8-tetrahydro-1,8-naphthyridin-2-yl)nonanoic acid], the results for the concentration for half-maximal inhibition (IC50) on αvβ6, at αvβ8 and at αvβ3 were 9.97 nM, 63.9 nM and 65.7 nM, respectively. The αvβ8/αvβ6 at αvβ6 stood at 6.41.

Turning to `O=C(O)CC(CCCCCCc1ccc2c(n1)NCCC2)c1ccc(Cl)c(C(F)(F)F)c1` (centres unmarked) [Compound A23, 3-(4-chloro-3-(trifluoromethyl)phenyl)-9-(5,6,7,8-tetrahydro-1,8-naphthyridin-2-yl)nonanoic acid], the IC50 at αvβ6 stood at 14.8 nM; on αvβ8, 151 nM; at αvβ3 it was 4.3 nM. In addition, at αvβ6, the αvβ8/αvβ6 came out at 10.18.
